Our source for the IC50 values is US12486251B2 (PHARMABLOCK SCIENCES (NANJING) , INC., priority 2020, dated 2025).

This assay addresses CBP recombinant proteins (Homo sapiens (Human), UniProt Q92793). Description: Competitive HTRF assay for affinity to CBP recombinant protein. In kind it is binding. The settings on record: His-tagged CBP 5 nM, biotin-labeled ligand 50 nM, 1% DMSO. The method, then:
The affinity of the compounds synthesized in the present patert to the CBP recombinant proteins was determined by competitive HTRF method. His-tagged cyclic adenosine monophosphate response element binding protein (CREB-binding protein, CBP) was expressed in Escherichia coli system and further purified. CBP biotinylated ligands were all self-made. The BL21 star (DE3) competert cells transfected with His-tagged CBP protein genes at N-terminal were cultured at 37° C. for 16 h until the OD value was between 0.6 and 0.8, induced by 0.5 mM of IPTG and cultured overnight. The supernatant of cell lysate was purified by a Ni-ion affinity column and a Superdex75 molecular sieve column sequentially. The purity of resulting CBP proteins was 95%. The fluorescent donor reagent MAb Anti 6HIS—Eu cryptate Gold (Cisbio #61HI2KLA), the receptor reagent Streptavidin-XL665 (#610SAXLA) and the detection buffer (#62SDBRDD) required for HTRF were obtained from CISBIO BIOASSAYS (Codolet, France). Tris(2-carboxyethyl)phosphine hydrochloride (TCEP), sodium chloride, adenosine triphosphate (ATP), Tween-20, dimethylsulfoxide (DMSO), bovine serum albumin (BSA) and HEPES buffer were obtained from SIGMA at the highest level commercially available.
The general procedure of the competitive HTRF assay for the affinity to CBP recombinant proteins is as follows: 0.05% Tween-20 and 1 mM of TCEP were added immediately before the assay, and the assay was performed in a buffer consisting of 0.1 mg/ml BSA, 50 mM of HEPES and 5 mM of NaCl of pH 7.5. 2.5 μL of compound solution in a determination buffer with 4% DMSO and 5 μL of CBP solution in a determination buffer were added to a white low-volume 384-well microtiter plate, incubated at room temperature for 20 min, and then incubated at room temperature for 40 min by adding 2.5 μL of biotin-labeled ligand solution to the determination buffer. The final concentrations of CBP, biotin-labeled ligand and DMSO were 5 nM, 50 nM and 1%, respectively. Then, 5 μL of MAb Anti 6HIS—Eu cryptate Gold and […] of Streptavidin-XL665 in detection buffers from the manufacturer were added to the mixture, and the mixture was incubated for another 60 min. The final concentration of Streptavidin-XL665 was 12.5 nM, and MAb Anti 6HIS—Eu cryptate Gold was diluted according to the final concentration provided by the supplier. The multimode reader Spark from TECAN (Mannedorf, Switzerland) was used to read the plate to detect the homogeneous time-resolved fluorescence intensity of two groups, in which the excitation wavelength was 320 nm and the emission wavelengths were 665 nm and 620 nm. The IC50 value of the inhibitor was obtained by fitting fluorescence intensity ratios at 665 nm/620 nm with respect to the inhibitor concentration in an S-shaped dose-response curve by using Prism 7 (La Jolla, 15 CA).

Chain of CBP recombinant proteins (Q92793 whole entry): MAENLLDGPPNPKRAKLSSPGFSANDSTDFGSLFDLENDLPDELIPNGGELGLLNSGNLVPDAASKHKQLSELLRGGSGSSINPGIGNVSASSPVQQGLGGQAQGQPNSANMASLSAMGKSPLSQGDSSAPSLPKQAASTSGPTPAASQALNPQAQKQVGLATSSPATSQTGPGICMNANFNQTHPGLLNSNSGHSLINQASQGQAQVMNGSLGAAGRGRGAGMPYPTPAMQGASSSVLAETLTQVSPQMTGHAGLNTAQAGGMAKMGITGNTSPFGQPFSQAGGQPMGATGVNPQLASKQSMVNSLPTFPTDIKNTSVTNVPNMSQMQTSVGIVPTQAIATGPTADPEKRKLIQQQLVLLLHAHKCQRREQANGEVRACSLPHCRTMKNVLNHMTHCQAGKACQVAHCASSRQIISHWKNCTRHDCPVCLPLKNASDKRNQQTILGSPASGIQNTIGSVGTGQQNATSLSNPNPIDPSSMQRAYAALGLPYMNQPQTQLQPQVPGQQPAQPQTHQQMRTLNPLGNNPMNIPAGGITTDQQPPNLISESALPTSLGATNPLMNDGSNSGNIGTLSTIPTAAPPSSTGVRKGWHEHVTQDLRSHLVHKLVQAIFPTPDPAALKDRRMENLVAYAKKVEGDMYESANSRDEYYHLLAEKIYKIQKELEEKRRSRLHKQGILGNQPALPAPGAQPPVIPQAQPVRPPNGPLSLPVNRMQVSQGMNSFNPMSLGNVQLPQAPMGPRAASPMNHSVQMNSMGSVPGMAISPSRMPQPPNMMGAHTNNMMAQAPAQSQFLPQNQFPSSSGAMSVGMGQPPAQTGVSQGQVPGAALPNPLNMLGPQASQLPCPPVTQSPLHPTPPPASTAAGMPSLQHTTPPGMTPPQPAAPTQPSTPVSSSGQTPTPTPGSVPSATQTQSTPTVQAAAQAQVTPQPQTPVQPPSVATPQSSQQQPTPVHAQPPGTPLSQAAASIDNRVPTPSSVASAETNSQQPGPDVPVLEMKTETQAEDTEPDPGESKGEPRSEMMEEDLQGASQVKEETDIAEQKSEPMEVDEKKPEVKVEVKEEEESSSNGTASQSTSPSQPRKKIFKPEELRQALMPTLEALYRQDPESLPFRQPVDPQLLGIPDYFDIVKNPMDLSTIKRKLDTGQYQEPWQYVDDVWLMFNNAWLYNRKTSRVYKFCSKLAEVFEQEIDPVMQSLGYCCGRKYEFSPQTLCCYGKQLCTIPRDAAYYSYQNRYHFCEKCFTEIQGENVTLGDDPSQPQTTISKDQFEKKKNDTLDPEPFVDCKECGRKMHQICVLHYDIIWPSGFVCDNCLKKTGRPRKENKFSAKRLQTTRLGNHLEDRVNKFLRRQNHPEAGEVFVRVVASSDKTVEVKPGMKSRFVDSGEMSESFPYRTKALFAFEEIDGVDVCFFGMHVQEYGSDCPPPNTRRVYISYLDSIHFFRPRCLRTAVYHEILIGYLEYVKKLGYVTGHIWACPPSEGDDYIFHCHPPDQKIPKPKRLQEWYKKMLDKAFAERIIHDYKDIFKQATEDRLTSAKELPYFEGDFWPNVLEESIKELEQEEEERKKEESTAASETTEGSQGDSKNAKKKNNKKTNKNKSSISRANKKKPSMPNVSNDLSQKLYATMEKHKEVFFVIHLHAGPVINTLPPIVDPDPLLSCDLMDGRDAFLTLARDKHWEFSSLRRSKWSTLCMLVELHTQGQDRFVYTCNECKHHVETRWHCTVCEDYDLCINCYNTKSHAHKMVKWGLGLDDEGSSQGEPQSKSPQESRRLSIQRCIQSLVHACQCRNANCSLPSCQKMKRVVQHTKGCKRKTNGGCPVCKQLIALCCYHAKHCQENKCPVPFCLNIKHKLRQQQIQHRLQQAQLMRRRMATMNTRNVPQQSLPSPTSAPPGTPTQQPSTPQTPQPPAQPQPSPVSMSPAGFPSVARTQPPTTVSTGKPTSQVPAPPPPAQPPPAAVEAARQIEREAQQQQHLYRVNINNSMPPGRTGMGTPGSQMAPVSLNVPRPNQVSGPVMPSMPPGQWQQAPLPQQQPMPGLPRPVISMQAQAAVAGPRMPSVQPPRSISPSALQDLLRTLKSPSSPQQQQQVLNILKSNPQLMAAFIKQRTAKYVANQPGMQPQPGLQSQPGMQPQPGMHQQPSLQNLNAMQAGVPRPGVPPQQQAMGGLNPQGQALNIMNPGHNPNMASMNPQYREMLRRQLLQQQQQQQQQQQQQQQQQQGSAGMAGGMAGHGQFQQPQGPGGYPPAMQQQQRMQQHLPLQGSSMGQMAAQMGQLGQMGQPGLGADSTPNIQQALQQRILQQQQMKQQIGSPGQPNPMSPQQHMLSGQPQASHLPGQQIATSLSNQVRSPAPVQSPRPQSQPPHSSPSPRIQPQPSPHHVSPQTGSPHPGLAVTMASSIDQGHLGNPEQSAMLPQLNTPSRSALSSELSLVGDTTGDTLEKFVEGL

For `CNC(=O)c1cc2cc(OC)cnc2c(N2CCCc3cc(C4CCN(C(C)=O)CC4)c(C(F)F)cc32)n1` [Example 51, 8-[6-(1-acetylpiperidin-4-yl)-7-difluoro-methyl-3,4-dihydro-2H-quinolin-1-yl]-3-methoxy-[1,7] naphthyridine-6-carboxylic acid methylamide], the IC50 (as a rule, the point on the concentration scale where inhibition reaches its midpoint) is 22 nM.

Consider `CNC(=O)c1cc2cc(F)cnc2c(N2CCCc3cc(C4CCN(C(C)=O)CC4)c(C(F)F)cc32)n1` [Example 52, 8-[6-(1-acetylpiperidin-4-yl)-7-difluoro-methyl-3,4-dihydro-2H-quinolin-1-yl]-3-fluoro-[1,7] naphthyridine-6-carboxylic acid methylamide], for which the IC50 came out at 27 nM.

In the case of `CNC(=O)c1cc2cccnc2c(N2CCCc3cc(-c4cnn(C5CNC5)c4)c(C(F)F)cc32)n1` [Example 53, 8-[6-(1-azetidin-3-yl-1H-pyrazol-4-yl)-7-difluoromethyl-3,4-dihydro-2H-quinolin-1-yl]-[1,7]naphthyridine-6-carboxylic acid methylamide], the IC50 was found to be 14 nM.

As to `CNC(=O)c1cc2cccnc2c(N2CCCc3cc(-c4cnn(C5CN(C)C5)c4)c(C(F)F)cc32)n1` [Example 54, 8-{7-difluoromethyl-6-[1-(1-methyl-azetidin-3-yl)-1H-pyrazol-4-yl]-3,4-dihydro-2H-quinolin-1-yl}-[1,7]naphthyridine-6-carboxylic acid methylamide], the IC50 amounted to 11 nM.

For the compound `CNC(=O)c1cc2cccnc2c(N2CCCc3cc(-c4cnn(CC#N)c4)c(C(F)F)cc32)n1` [Example 55, 8-[6-(1-cyanomethyl-1H-pyrazol-4-yl)-7-difluoromethyl-3,4-dihydro-2H-quinolin-1-yl]-[1,7]naphthyridine-6-carboxylic acid methylamide], the IC50 stood at 15 nM.

As for `CNC(=O)Cn1cc(-c2cc3c(cc2C(F)F)N(c2nc(C(=O)NC)cc4ccccc24)CCC3)cn1` [Example 56, 1-[7-difluoromethyl-6-(1-methylcarbamoylmethyl-1H-pyrazol-4-yl)-3,4-dihydro-2H-quinolin-1-yl]-isoquinoline-3-carboxylic acid methylamide], the IC50 was determined as 24 nM.

As to `CNC(=O)c1cc2ccccc2c(N2CCCc3cc(-c4cnn(C)c4)c(Cl)cc32)n1` [Example 57, 1-[7-chloro-6-(1-methyl-1H-pyrazol-4-yl)-3,4-dihydro-2H-quinolin-1-yl]-isoquinoline-3-carboxylic acid methylamide], the IC50 came out at 36 nM.

Consider `CNC(=O)c1ccc2c(c1)CCCN2c1nc(C(=O)NC)cc2ccccc12` [Example 58, 1-(3-methylcarbamoylisoquinolin-1-yl)-1,2,3,4-tetrahydroquinoline-6-carboxylic acid methylamide], for which the IC50 came out at 100 nM.

As for `CNC(=O)c1cc2ccccc2c(N2CCCc3cc(CO)ccc32)n1` [Example 59, 1-(6-hydroxymethyl-3,4-dihydro-2H-quinolin-1-yl)-isoquinoline-3-carboxylic acid methylamide], the IC50 was determined as 402 nM.

As to `CNC(=O)c1cc2ccccc2c(N2CCOc3cc(-c4cnn(C)c4)ccc32)n1` [Example 60, 1-[7-(1-methyl-1H-pyrazol-4-yl)-2,3-dihydro-benzo[1,4]oxazin-4-yl]-isoquinoline-3-carboxylic acid methylamide], the IC50 was 58 nM.

Turning to `CNC(=O)c1cc2c(c(N3CCCc4cc(-c5cnn(C)c5)c(C(F)F)cc43)n1)CCC2` [Example 61, 1-[7-difluoromethyl-6-(1-methyl-1H-pyrazol-4-yl)-3,4-dihydro-2H-quinolin-1-yl]-6,7-dihydro-5H-[2]pyrazine-3-carboxylic acid methylamide], the IC50 turned out to be 70 nM.

Consider `CNC(=O)c1cc2c(c(N3CCCc4cc(-c5cnn(C)c5)c(C(F)F)cc43)n1)COC2` [Example 62, 4-(7-(difluoro-methyl)-6-(1-methyl-1H-pyrazol-4-yl)-3,4-dihydroquinolin-1(2H)-yl)-N-methyl-1,3-dihydrofuran [3,4-c]pyridine-6-carboxamide], for which the IC50 is 287 nM.

Turning to `CNC(=O)c1cc2ccoc2c(N2CCCc3cc(-c4cnn(C)c4)c(C(F)F)cc32)n1` [Example 63, 7-[7-difluoromethyl-6-(1-methyl-1H-pyrazol-4-yl)-3,4-dihydro-2H-quinolin-1-yl]-furan[2,3-c]pyridine-5-carboxylic acid methylamide], the IC50 worked out at 136 nM.

As for `CNC(=O)c1cc2ncccc2c(N2CCCc3cc(-c4cnn(C)c4)c(C(F)F)cc32)n1` [Example 64, 5-[7-difluoromethyl-6-(1-methyl-1H-pyrazol-4-yl)-3,4-dihydro-2H-quinolin-1-yl]-[1,6]naphthyridine-7-carboxylic acid methylamide], the IC50 is 14 nM.

On to `CNC(=O)c1cc2cccnc2c(N2CCOc3cc(-c4cnn(C)c4)c(C(F)F)cc32)n1` [Example 65, 8-[6-difluoromethyl-7-(1-methyl-1H-pyrazol-4-yl)-2,3-dihydro-benzo[1,4]oxazin-4-yl]-[1,7]naphthyridine-6-carboxylic acid methylamide], for which the IC50 was 12 nM.

Take `CNC(=O)c1cc2cccnc2c(-c2ccc3c(c2)c(-c2cnn(C)c2)nn3C)n1` [Example 66, 8-[1-methyl-3-(1-methy 1-1H-pyrazol-4-yl)-1H-indazol-5-yl]-[1,7]naphthyridine-6-carboxylic acid methylamide]: the IC50 worked out at 49 nM.
